Assay [1] concerns glucocorticoid receptor (GR). Nature of the assay: GR protein levels in cells after treatment with proteasome inhibitor. In kind it is cell-based, human. From the text:
(§1) Further, GR protein expression can be increased both in the absence and in the presence of […] such as glucocorticoids and SEGRA. Importantly, in the presence of GR ligands, cell pre-treatment with BZ results in the accumulation of GR whose function is defined by the ligand. […] Thus, SEGRA+BZ administered in combination will maximize the anti-inflammatory and anti-proliferative effects of SEGRA therapy that are based on GR transrepression, and at the same time will not induce metabolic side effects typical for glucocorticoids that are based on GR transactivation.

Assay [2] has as its system glucocorticoid receptor (GR). Nature of the assay: Function (transactivation / transrepression) of GR accumulated after cell pre-treatment with BZ in the presence of GR ligands. In kind it is cell-based.
Source text: as §1

On to `CC(C)C[C@H](NC(=O)[C@H](Cc1ccccc1)NC(=O)c1cnccn1)B(O)O` [Bortezomib], for which, in assay [1] (human epithelial and lymphoid cell lines and primary cell cultures), the “endogenous GR protein levels” value was “strongly increases endogenous GR protein levels”. The “GR expression in GR-negative cells” value in assay [1] (some glucocorticoid-resistant GR-negative cells) is recorded as “re-expression of GR”. The “GR accumulation and function” value in assay [2] (in the presence of SEGRA) was “accumulation of GR whose activity is shifted towards transrepression”; in assay [2] (in the presence of glucocorticoids), “accumulation of GR that is proficient in both transactivation and transrepression”.
